Measured values from patent US20220110882A1, “SYNTHETICALLY LETHAL NANOPARTICLES FOR TREATMENT OF CANCERS” (UNIVERSITY OF IOWA RESEARCH FOUNDATION, priority 2017, published 2022).

Columns and labels:
Hec50co cells [1] = details: 5 mg/kg each IV on days 18, 25, 32
Description: In vivo efficacy studies using mouse xenograft model of LOF p53 USC. Female athymic NCI-nu/nu mice (Charles River, Wilmington, Mass.) at the age of 6-8 weeks were challenged subcutaneously with 2×10^6 Hec50co cells in the right flank after isoflurane anesthesia. […] Mice were 5 per group, except the group that received the combination therapy were 7. Treatments were administered TV through retro-orbital injections in the venous sinus on days 18, 25, and 32. The tumor diameters and height were measured using digital caliper. The tumor volumes were calculated from the following formula:
Where D1 is the first tumor diameter (mm), D2 is the second tumor diameter (mm), and H is the tumor height.
Mice weights were monitored during the experiment and mice were euthanized once the tumor diameter exceeded 2 cm or tumor height exceeded 1 cm. Sample sizes for this experiment were estimated based on preliminary data in order to have 80% power to detect significant differences between groups. All animal experiments were not blinded, and were carried out in accordance with guidelines and regulations approved by the University of Iowa Institutional Animal Care and Use Committee.

GOF Hec50co cells = assay: BIBFs effect on NPs uptake using flow cytometry; format: cell-based, human; details: 1 μM BIBFs, 6 h, serum containing media
Description: (§1) BIBFs effect on NPs uptake using flow cytometry. The effect of BIBFs on the uptake of different RHDp against Hec50co cells and GOF Hec50co cells was tested. Both cell lines were plated at a seeding density of 10^5 cell/well in 12 well plate, and then the experiment was carried out as mentioned in section [00125]) with two exceptions: a) RHDp uptake was evaluated in the presence or absence of 1 μM BIBFs, b) the experiment was carried out in serum containing media to mimic the in vivo conditions.

Hec50co cells [2] = assay: BIBFs effect on NPs uptake using flow cytometry; format: cell-based, human; details: 1 μM BIBFs, 6 h, serum containing media
Description: as §1

| Compound | median survival (Hec50co cells [1]) [days] | increase in fluorescence intensity on addition to RHDp (75/T) (GOF Hec50co cells) [fold] | increase in fluorescence intensity on addition to RHDp (75/T) (Hec50co cells [2]) [fold] |
| --- | --- | --- | --- |
| CC(=O)O[C@H]1C(=O)[C@@]2(C)[C@H]([C@H](OC(=O)c3ccccc3)[C@]3(O)C[C@H](OC(=O)[C@H](O)[C@@H](NC(=O)c4ccccc4)c4ccccc4)C(C)=C1C3(C)C)[C@]1(OC(C)=O)CO[C@@H]1C[C@@H]2O [PTXs, paclitaxel] | 41 |  |  |
| COC(=O)c1ccc2c(c1)NC(=O)/C2=C(\Nc1ccc(N(C)C(=O)CN2CCN(C)CC2)cc1)c1ccccc1 [BIBFs, BIBF-1120] |  | 1.5 | 1.5 |
